Source: patent US20150119410A1, “BIOMARKERS OF RESPONSE TO NAE INHIBITORS” (MILLENNIUM PHARMACEUTICALS, INC., priority 2011, published 2015)

What was measured:
Assay type in all cases: cell-based
SW 1116 = assay: Cell line panel 2 high-content screen; settings: Homo sapiens; SW 1116 (intestine); 72 hours
Procedure: (§1) To support clinical development and identify potential biomarkers of tumor sensitivity or resistance, two large cancer cell line panels (Panel 1, N=653 (McDermott et al. (2007) PNAS 104:19936-19941); Panel 2, N=240 (O'Day et al. (2010) Fourth AACR International Conference on Molecular Diagnostics in Cancer Therapeutic Development)) were treated with MLN4924 and cell viability data (IC50, EC50, and POC—Percentage of Control) were generated.
(§2) Panel 2 (Ricerca Biosciences, Inc., Bothell, Wash.). MLN4924 was added in half-log dilutions for 10 concentrations and treated for 72 hours. High-content cell screening by fluorescence microscopy included image analysis to generate several types of data. Results included EC50 values (after measurement of cell numbers, the EC50 concentration was calculated from the inflection point of a curve of percent of control (POC) against log of MLN4924 concentration), IC50 values (from the POC-log MLN4924 plot, IC50 is the concentration at 50% maximal possible response), apoptosis (measurement of activation of caspase 3 plotted against log of MLN4924 concentration, determined as the concentration for >5 fold induction), and mitotic activity (determined by measuring the fold increase of phospho-histone 3). A comparison of EC50 to IC50 (FIG. 3) allowed assignment of cell lines to sensitive, insensitive or resistant. Final identification of a cell line as sensitive or resistant was based on the EC50 values. The cutoff for sensitivity is a median EC50 of less than the median value of all POC's recorded in the panel (<0.36), borderline sensitivity was associated with median EC50 of 0.36 to 1.67 and insensitive or resistant cell lines were identified by EC50 greater than the 3rd quartile of all POC's in the panel (>1.67).

BV-173 = assay: Cell line panel 2 high-content screen; settings: BV-173 (haematopoietic, lymphoid_tissue)
Procedure: as §1, §2

SW837 = assay: Cell line panel 2 high-content screen; settings: Homo sapiens; SW837 (intestine); 72 hours
Procedure: as §1, §2

p21 = assay: Western blot of p21 in TP53 −/− HCT-116 cells; settings: TP53 −/− HCT-116 cells treated with MLN4924

NS(=O)(=O)OC[C@@H]1C[C@@H](n2ccc3c(N[C@H]4CCc5ccccc54)ncnc32)C[C@@H]1O [MLN4924, ((1S,2S,4R)-4-{4-[(1S)-2,3-dihydro-1H-inden-1-ylamino]-7H-pyrrolo[2,3-d]pyrimidin-7-yl}-2-hydroxycyclopentyl)methyl sulphamate]
EC50 (SW 1116): 10 µM
Phenotype (BV-173; KDM6A mutant): sensitive (The cutoff for sensitivity is a median EC50 of less than the median value of all POC's recorded in the panel (<0.36))
EC50 (BV-173; Homo sapiens, 72 hours): 131 nM
EC50 (SW837): 694 nM
p21 level (Western blots) (p21): still up-regulated
